Patent publication US20140228377A1, “METHYLPIPERIDINE DERIVATIVE” (TAISHO PHARMACEUTICAL CO., LTD., priority 2011, published 2014)
pIC50: −log10 of the molar value.

Legend:
[1] = biological target: T1, orexin-2 receptor (hOX2R) (Homo sapiens, UniProt O43614); assay: Orexin antagonistic activity assay (intracellular Ca2+, FDSS) in CHO cells expressing hOX2R; format: cell-based; conditions: CHO cells expressing hOX2R; ligand peptide 3 nM; Fluo-3 maximum fluorescence intensity; read-out: IC50 value OX2
T1 construct: expressed in transfected cells; host or cells: Chinese hamster ovary (CHO) cells
T1 sequence (O43614 1-444): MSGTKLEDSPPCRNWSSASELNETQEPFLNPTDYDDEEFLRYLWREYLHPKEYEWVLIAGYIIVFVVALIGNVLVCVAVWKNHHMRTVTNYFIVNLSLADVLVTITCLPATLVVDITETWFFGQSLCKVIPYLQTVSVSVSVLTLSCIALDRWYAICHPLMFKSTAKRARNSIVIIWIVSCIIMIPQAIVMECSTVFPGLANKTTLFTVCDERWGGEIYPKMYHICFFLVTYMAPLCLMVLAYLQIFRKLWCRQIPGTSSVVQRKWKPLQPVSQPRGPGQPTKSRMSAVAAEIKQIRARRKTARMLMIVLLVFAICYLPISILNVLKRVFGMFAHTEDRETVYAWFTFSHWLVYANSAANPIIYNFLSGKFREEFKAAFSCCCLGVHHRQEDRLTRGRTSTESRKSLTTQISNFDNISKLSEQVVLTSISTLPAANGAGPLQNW
Description: (§1) The antagonistic activity of each test compound against human orexin-1 receptor (hOX1R) and orexin-2 receptor (hOX2R) was assayed by a modification of a method described in the literature (Toshikatsu Okumura et al., Biochemical and Biophysical Research Communications 280, 976-981, 2001). Chinese hamster ovary (CHO) cells forced to express hOX1R or hOX2R were inoculated at a density of 20,000 cells/well to a 96-well Black clear bottom plate (Nunc) and cultured at 37° C. for 16 hours under 5% CO2 conditions in a Ham's F-12 medium containing 0.1 mM MEM nonessential amino acids, 0.5 mg/ml G418, and 10% fetal bovine serum (all from Invitrogen Corp.). After removal of the medium, 100 μL of a buffer solution for assay (25 mM HEPES (Dojindo Laboratories), Hanks' balanced salt solution (Invitrogen Corp.), 0.1% bovine serum albumin, 2.5 mM probenecid, and 200 μg/ml Amaranth (all from Sigma-Aldrich Corp.), pH 7.4) containing 0.5 μM Fluo-3 AM ester (Dojindo Laboratories) was added to the cells, which were then incubated at 37° C. for 60 minutes under 5% CO2 conditions. After removal of the buffer solution for assay containing Fluo-3 AM ester, each test compound was dissolved at a concentration of 10 mM in dimethyl sulfoxide and diluted with a buffer solution for assay. Then, 150 μL of the solution was added to the cells, which were then incubated for 30 minutes.
(§2) A ligand peptide (Pyr-[…]NH2; Peptide Institute, Inc.) derived from human orexin-A by the substitution of two amino acids was diluted with a buffer solution for assay to final concentrations of 300 pM for hOX1R and 3 nM for hOX2R. Reaction was initiated by the addition of 50 μL of this ligand solution. The fluorescence intensity of the reaction was measured in each well every second for 3 minutes using Functional Drug Screening System (FDSS; manufactured by Hamamatsu Photonics K.K.), and the maximum fluorescence intensity was used as an index for intracellular Ca^2+ concentration to determine antagonistic activity. The antagonistic activity of the test compound was calculated with fluorescence intensity from a well supplemented with only a diluting buffer solution as 100% and fluorescence intensity from a well supplemented with a buffer solution free from the ligand and the compound as 0%. The 50% inhibitory concentration (IC50 value) was determined on the basis of fluorescence intensity derived from the test compound added at varying concentrations.

[2] = biological target: T2, human orexin-1 receptor (hOX1R) (Homo sapiens, UniProt O43613); assay: Orexin antagonistic activity assay (intracellular Ca2+, FDSS) in CHO cells expressing hOX1R; format: cell-based; conditions: CHO cells expressing hOX1R; ligand peptide 300 pM; Fluo-3 maximum fluorescence intensity; read-out: IC50 value OX1
T2 construct: expressed in transfected cells; host or cells: Chinese hamster ovary (CHO) cells
T2 sequence (O43613 1-425): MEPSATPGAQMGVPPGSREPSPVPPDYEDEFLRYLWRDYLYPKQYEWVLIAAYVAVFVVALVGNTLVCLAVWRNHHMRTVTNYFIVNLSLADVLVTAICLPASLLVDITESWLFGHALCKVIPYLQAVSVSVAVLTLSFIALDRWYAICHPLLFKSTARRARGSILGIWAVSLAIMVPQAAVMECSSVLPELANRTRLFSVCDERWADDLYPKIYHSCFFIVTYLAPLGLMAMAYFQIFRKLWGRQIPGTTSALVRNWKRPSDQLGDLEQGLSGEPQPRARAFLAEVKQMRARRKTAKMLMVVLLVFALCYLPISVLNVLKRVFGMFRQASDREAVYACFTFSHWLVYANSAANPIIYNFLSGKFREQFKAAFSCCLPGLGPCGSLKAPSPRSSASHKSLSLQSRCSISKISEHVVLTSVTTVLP
Description: as §1, §2

A pIC50 [1] of 8.70 and a pIC50 [2] of 7.31 were found for `C[C@@H]1CC[C@@H](c2nc3cc(Cl)ccc3o2)CN1C(=O)c1ccccc1-c1ncccn1` (single isomer, unassigned) [Example 7, [(2R*,5R*)-5-(5-Chloro-1,3-benzoxazol-2-yl)-2-methylpiperidin-1-yl][2-(pyrimidin-2-yl)phenyl]methanone] in this work.
A pIC50 [1] of 6.04 and a pIC50 [2] of 5.98 were found for `Cc1ccc(-n2nccn2)c(C(=O)N2C[C@H](c3nc4cc(OC(F)(F)F)ccc4o3)CC[C@H]2C)n1` [Example 42, [6-Methyl-3-(2H-1,2,3-triazol-2-yl)pyridin-2-yl]{(2R,5R)-2-methyl-5-[5-(trifluoromethoxy)-1,3-benzoxazol-2-yl]piperidin-1-yl}methanone] in this work.
A pIC50 [1] of 8.37 and a pIC50 [2] of 7.61 were found for `Cc1ccc(-n2nccn2)c(C(=O)N2C[C@H](c3nc4cc(F)cc(F)c4o3)CC[C@H]2C)c1` [Example 62, [(2R,5R)-5-(5,7-Difluoro-1,3-benzoxazol-2-yl)-2-methylpiperidin-1-yl][5-methyl-2-(2H-1,2,3-triazol-2-yl)phenyl]methanone] in this work.
A pIC50 [1] of 8.54 and a pIC50 [2] of 7.26 were found for `C[C@@H]1CC[C@@H](c2nc3cc(Cl)ccc3o2)CN1C(=O)c1cc(F)ccc1-c1ncccn1` (single isomer, unassigned) [Example 6, [(2R*,5R*)-5-(5-Chloro-1,3-benzoxazol-2-yl)-2-methylpiperidin-1-yl][5-fluoro-2-(pyrimidin-2-yl)phenyl]methanone] in this work.
A pIC50 [1] of 8.68 and a pIC50 [2] of 9.15 were found for `Cc1ccc(-c2ncccn2)c(C(=O)N2C[C@H](c3nc4cc(F)ccc4o3)CC[C@H]2C)c1` (single isomer, unassigned) [Example 8, [(2R*,5R*)-5-(5-Fluoro-1,3-benzoxazol-2-yl)-2-methylpiperidin-1-yl][5-methyl-2-(pyrimidin-2-yl)phenyl]methanone] in this work.
A pIC50 [1] of 8.37 and a pIC50 [2] of 8.51 were found for `Cc1ccc(-c2ncccn2)c(C(=O)N2C[C@H](c3nc4cc(Cl)ccc4o3)CC[C@H]2C)c1` (single isomer, unassigned) [Example 5, [(2R*,5R*)-5-(5-Chloro-1,3-benzoxazol-2-yl)-2-methylpiperidin-1-yl][5-methyl-2-(pyrimidin-2-yl)phenyl]methanone] in this work.
A pIC50 [1] of 7.91 and a pIC50 [2] of 7.23 were found for `C[C@@H]1CC[C@@H](c2nc3ccc(Cl)cc3o2)CN1C(=O)c1c(F)cccc1-n1nccn1` [Example 48, [(2R,5R)-5-(6-Chloro-1,3-benzoxazol-2-yl)-2-methylpiperidin-1-yl][2-fluoro-6-(2H-1,2,3-triazol-2-yl)phenyl]methanone] in this work.
A pIC50 [1] of 8.34 and a pIC50 [2] of 8.15 were found for `Cc1ccc(-n2nccn2)c(C(=O)N2C[C@H](c3nc4c(Cl)cccc4o3)CC[C@H]2C)c1` [Example 68, [(2R,5R)-5-(4-Chloro-1,3-benzoxazol-2-yl)-2-methylpiperidin-1-yl][5-methyl-2-(2H-1,2,3-triazol-2-yl)phenyl]methanone] in this work.
A pIC50 [1] of 8.08 and a pIC50 [2] of 7.96 were found for `Cc1ccc(C(=O)N2C[C@H](c3nc4cc(Cl)ccc4o3)CC[C@H]2C)c(-n2nccn2)c1` [Example 26, [(2R,5R)-5-(5-Chloro-1,3-benzoxazol-2-yl)-2-methylpiperidin-1-yl][4-methyl-2-(2H-1,2,3-triazol-2-yl)phenyl]methanone] in this work.
A pIC50 [1] of 7.55 and a pIC50 [2] of 6.84 were found for `Cc1ccc(-n2nccn2)c(C(=O)N2C[C@H](c3nc4cc(F)cc(F)c4o3)CC[C@H]2C)n1` [Example 64, [(2R,5R)-5-(5,7-Difluoro-1,3-benzoxazol-2-yl)-2-methylpiperidin-1-yl][6-methyl-3-(2H-1,2,3-triazol-2-yl)pyridin-2-yl]methanone] in this work.
A pIC50 [1] of 8.60 and a pIC50 [2] of 8.05 were found for `Cc1ccc(-n2nccn2)c(C(=O)N2C[C@H](c3nc4cc(C(F)(F)F)ccc4o3)CC[C@H]2C)c1` [Example 36, [5-Methyl-2-(2H-1,2,3-triazol-2-yl)phenyl][(2R,5R)-2-methyl-5-[5-(trifluoromethyl)-1,3-benzoxazol-2-yl]piperidin-1-yl]methanone] in this work.
A pIC50 [1] of 8.06 and a pIC50 [2] of 7.38 were found for `C[C@@H]1CC[C@@H](c2nc3cc(Cl)ccc3o2)CN1C(=O)c1ccc(F)cc1-n1nccn1` [Example 14, [(2R,5R)-5-(5-Chloro-1,3-benzoxazol-2-yl)-2-methylpiperidin-1-yl][4-fluoro-2-(2H-1,2,3-triazol-2-yl)phenyl]methanone] in this work.
A pIC50 [1] of 6.98 and a pIC50 [2] of 6.95 were found for `Cc1ccc(-n2nccn2)c(C(=O)N2C[C@H](c3nc4ccc(F)cc4o3)CC[C@H]2C)n1` (single isomer, unassigned) [Example 12, [(2R*,5R*)-5-(6-Fluoro-1,3-benzoxazol-2-yl)-2-methylpiperidin-1-yl][6-methyl-3-(2H-1,2,3-triazol-2-yl)pyridin-2-yl]methanone] in this work.
A pIC50 [1] of 6.73 and a pIC50 [2] of 5.75 were found for `C[C@@H]1CC[C@@H](c2nc3cc(Cl)ccc3o2)CN1C(=O)c1ccc(Cl)cc1-n1nccn1` [Example 27, [(2R,5R)-5-(5-Chloro-1,3-benzoxazol-2-yl)-2-methylpiperidin-1-yl][4-chloro-2-(2H-1,2,3-triazol-2-yl)phenyl]methanone] in this work.
A pIC50 [1] of 8.39 and a pIC50 [2] of 7.74 were found for `C[C@@H]1CC[C@@H](c2nc3cc(Cl)ccc3o2)CN1C(=O)c1ccccc1-n1nccn1` (single isomer, unassigned) [Example 3, [(2R*,5R*)-5-(5-Chloro-1,3-benzoxazol-2-yl)-2-methylpiperidin-1-yl][2-(2H-1,2,3-triazol-2-yl)phenyl]methanone] in this work.
A pIC50 [1] of 7.00 and a pIC50 [2] of 6.80 were found for `Cc1ccc(-n2nccn2)c(C(=O)N2C[C@H](c3nc4cc(C(F)(F)F)ccc4o3)CC[C@H]2C)n1` [Example 40, [6-Methyl-3-(2H-1,2,3-triazol-2-yl)pyridin-2-yl]{(2R,5R)-2-methyl-5-[5-(trifluoromethyl)-1,3-benzoxazol-2-yl]piperidin-1-yl}methanone] in this work.
A pIC50 [1] of 7.65 and a pIC50 [2] of 6.78 were found for `C[C@@H]1CC[C@@H](c2nc3cc(Cl)ccc3o2)CN1C(=O)c1cc(F)ccc1-c1ncc(F)cn1` [Example 23, [(2R,5R)-5-(5-Chloro-1,3-benzoxazol-2-yl)-2-methylpiperidin-1-yl][5-fluoro-2-(5-fluoropyrimidin-2-yl)phenyl]methanone] in this work.
A pIC50 [1] of 7.15 and a pIC50 [2] of 8.00 were found for `Cc1ccc(-n2nccn2)c(C(=O)N2C[C@H](c3nc4ccc(Cl)cc4o3)CC[C@H]2C)n1` [Example 46, [(2R,5R)-5-(6-Chloro-1,3-benzoxazol-2-yl)-2-methylpiperidin-1-yl][6-methyl-3-(2H-1,2,3-triazol-2-yl)pyridin-2-yl]methanone] in this work.
A pIC50 [1] of 8.21 and a pIC50 [2] of 6.97 were found for `Cc1ccc(-n2nccn2)c(C(=O)N2C[C@H](c3nc4cc(Cl)cnc4o3)CC[C@H]2C)c1` [Example 71, [(2R,5R)-5-(6-Chloro[1,3]oxazolo[5,4-b]pyridin-2-yl)-2-methylpiperidin-1-yl][5-methyl-2-(2H-1,2,3-triazol-2-yl)phenyl]methanone] in this work.
